Active and inactive are the calls of the source. The rule behind the calls is not given here.
Key:
Bacillus subtilis = test: Antibacterial activity against Bacillus subtilis MTCC 121 after 24 hrs by well diffusion method; format: functional
Staphylococcus aureus [1] = test: Antibacterial activity against Staphylococcus aureus MLS16 MTCC 2940 after 24 hrs by well diffusion method; format: functional
MCF7 = test: Cytotoxicity against human MCF7 cells by MTT assay; format: functional, cell-based; details: Homo sapiens, MCF7; read-out: IC50
Raoultella planticola = test: Antibacterial activity against Klebsiella planticola MTCC 530 after 24 hrs by well diffusion method; format: functional
HeLa = test: Cytotoxicity against human HeLa cells by MTT assay; format: functional, cell-based; details: Homo sapiens, HeLa; read-out: IC50
DU-145 = test: Cytotoxicity against human DU145 cells by MTT assay; format: functional, cell-based; details: Homo sapiens, DU-145; read-out: IC50
Staphylococcus aureus [2] = test: Antibacterial activity against Staphylococcus aureus MTCC 96 after 24 hrs by well diffusion method; format: functional
Micrococcus luteus = test: Antibacterial activity against Micrococcus luteus MTC 2470 after 24 hrs by well diffusion method; format: functional
Pseudomonas aeruginosa = test: Antibacterial activity against Pseudomonas aeruginosa MTCC 2453 after 24 hrs by well diffusion method; format: functional
Escherichia coli = test: Antibacterial activity against Escherichia coli MTCC 739 after 24 hrs by well diffusion method; format: functional
A549 = test: Cytotoxicity against human A549 cells by MTT assay; format: functional, cell-based; details: Homo sapiens, A549; read-out: IC50

MIC (Bacillus subtilis): inactive
MIC (Staphylococcus aureus [1]): inactive
MIC (Staphylococcus aureus [2]): inactive
MIC (Micrococcus luteus): inactive
MIC (Pseudomonas aeruginosa): inactive
MIC (Escherichia coli): inactive
SMILES: CC(C)C[C@@H](NC(=S)Nc1cc(C(F)(F)F)cc(C(F)(F)F)c1)c1nc2ccccc2[nH]1
IC50 (MCF7): 91 µM
MIC (Raoultella planticola): inactive
IC50 (HeLa): 10.4 µM
IC50 (DU-145): 16.5 µM
IC50 (A549): 10.2 µM

Source: ChEMBL document CHEMBL3352042, “Synthesis of novel benzimidazole functionalized chiral thioureas and evaluation of their antibacterial and anticancer activities” (Bioorg Med Chem Lett, 2014)
